{"source": "paper PMC9266350", "about": "“Searching for a Paradigm Shift in Auger-Electron Cancer Therapy with Tumor-Specific Radiopeptides Targeting the Mitochondria and/or the Cell Nucleus” (International Journal of Molecular Sciences, 2022)", "key": {"[1]": {"system": "PC3 cells", "test": "Clonogenic assay", "type": "cell-based, human", "details": "highest concentration 10^−7 M (range 10^−10–10^−7 M), 24 h at 37 °C", "protocol": "PC3 cells were seeded at a density of 50000 cells per well in a 24 well-plate and allowed to attach overnight. […] Immediately, after incubation, cells were seeded out in appropriate dilution to form colonies, in 2 weeks, with at least 50 cells. Colonies were fixed with methanol: glacial acetic acid (3:1) and stained with Giemsa (4%).\nThe Plating Efficiency (PE), ratio of the number of colonies to the number of cells seeded, and the Survival Fraction (SF), number of colonies that arise after treatment of cells, expressed in terms of PE, were obtained following the methodology described in [66], where:(1) PE=number of colonies formed /number of cells seeded×100% (2) SF=number of colonies formed after treatment/number of cells seeded×PE"}, "[2]": {"system": "PC3 cells", "test": "Confocal fluorescence microscopy colocalization with MitoTracker", "type": "cell-based, human", "details": "1 µM, 30 min with MitoTracker Deep Red FM, fixed", "procedure": "To study the intracellular location of uptaken Re-AO-BBN, cells were washed with PBS, incubated with MitoTracker™ Deep Red FM (1:1000, Invitrogen, Bleiswijk, The Netherlands) and Re-AO-BBN (1 µM) in FluoroBrite™ DMEM with high D-glucose for 30 min, fixed with 4% paraformaldehyde (in PBS) at 4 °C for 20 min, washed with PBS, incubated with Hoechst (0.2 µg/mL) for 1 h, washed and left submerged in PBS. Cells were imaged on a Leica TCS SP8 confocal microscope, equipped with a HC Plan Apo 20 × /0.75 dry objective, 405, 488 and 638 nm laser lines, PMT (MitoTracker) and HyD (Hoechst, Re-AO-BBN) detectors. The pinhole was set to 1 airy unit and Nyquist sampling was met in xyz (132 × 132 × 685 nm). Mitochondria accumulation was assessed by the Pearson coefficient between Re-AO-BBN and MitoTracker fluorescence intensities, considering an appropriate threshold."}, "[3]": {"system": "PC3 cells", "test": "γ-H2AX assay and foci analysis", "type": "cell-based, human", "details": "1.85 MBq, 24 h at 37 °C", "procedure": "PC3 cells were seeded at a density of 10000 cells per well in an eight-well chamber slide and allowed to attach overnight. […] PC3 cells were washed three times with PBS, and fixed with 4% formaldehyde in PBS for 15 min. After washing with PBS, cells were permeabilized with Triton X-100 (0.5%) at room temperature for 5 min followed by two washing steps with 1% BSA in PBS. Then, cells were incubated with an anti-γ-H2AX primary antibody (mouse anti-γ-H2AX (ser139), Stressgen) at 2 μg/mL for 1 h. After being washed twice with 1% BSA in PBS, cells were incubated with a Texas Red-X-conjugated anti-mouse secondary antibody at […] for 1 h, followed by three washing steps with PBS. Cells were finally mounted in anti-fade mounting media with DAPI (Vectashield H-1200, Vector Laboratories).\nCells were analyzed under 64x magnification. Several high-quality 2D images were randomly collected in each slide and analyzed using the pipeline Speckle Count from the freeware CellProfiler. At least 200 nuclei were analyzed per experiment per dose. Statistical analysis was performed with Origin 7.5 software."}, "[4]": {"system": "PC3 cells", "test": "Mitochondrial ToxGlo assay (cell membrane integrity and cellular ATP levels)", "details": "2 h at 37 °C, HBSS with galactose and 1% BSA, CCCP 10 μM", "procedure": "PC3 cells were seeded at a density of 10,000 cells per well in a 96 well-plate and allowed to attach overnight. […] Cells incubated only with this medium were used as a basal control and cells incubated with CCCP (10 μM) as a positive control for mitochondrial inhibition. After the 2 h, the Mitochondrial Toxglo assay was performed according to the manufacturer’s instructions (Promega). Assays were performed in triplicate."}, "[5]": {"biological_target": "T1, human GRPR (Homo sapiens, UniProt P30550)", "T1 construct": "endogenous in cells; host or cells: PC3 human prostate carcinoma cells (intact, attached)", "T1 sequence (P30550 whole entry)": "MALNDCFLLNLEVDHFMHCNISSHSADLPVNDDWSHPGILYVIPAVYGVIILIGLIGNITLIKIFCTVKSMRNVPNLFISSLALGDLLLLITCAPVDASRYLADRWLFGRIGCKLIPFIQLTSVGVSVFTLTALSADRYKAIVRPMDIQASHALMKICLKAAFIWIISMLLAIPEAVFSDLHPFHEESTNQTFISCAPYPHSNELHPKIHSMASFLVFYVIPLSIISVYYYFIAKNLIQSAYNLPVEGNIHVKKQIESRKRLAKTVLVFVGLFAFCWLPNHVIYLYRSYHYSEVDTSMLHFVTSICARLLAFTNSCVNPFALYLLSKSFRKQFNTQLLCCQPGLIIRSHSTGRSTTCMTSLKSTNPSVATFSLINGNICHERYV", "test": "Competitive radioligand binding assay against [125I-Tyr4]-BBN", "details": "PC3 cells, 90 min at 4 °C, one-site model, mean ± SEM of three independent experiments; read-out: IC50, displacement of [125I-Tyr4]-BBN from GRPR", "procedure": "The in vitro cell-binding assays were performed with the prostate carcinoma cell line PC3. Briefly, cells were seeded in 24-well plates (150,000 cells per well) and allowed to attach overnight. […] The competition was interrupted by discarding supernatants and washing the cells twice with ice-cold PBS with 0.2% BSA. Cells were then lysed with 1 M NaOH treatment (2 × 0.4 mL, 10 min at 37 °C). Lysates were collected and counted for their radioactivity content in an automated γ–counter (HIDEX AMG, Hidex, Turku, Finland)."}}, "note": "Where a SMILES comes first, the peptide text is derived from it. Where no end group is shown, it is not given here. The star is where a group is joined. X1 = Cc1nn(CCN(CCN)CCCC(=O)NCCC[n+]2c3cc(N(C)C)ccc3cc3ccc(N(C)C)cc32)c(C)c1CC(=O)*; pyrazolyl‑diamine chelator carrying TPP = not defined here"}
{"molecule": "CSCC[C@H](NC(=O)[C@H](CC(C)C)NC(=O)[C@H](Cc1c[nH]cn1)NC(=O)CNC(=O)[C@@H](NC(=O)[C@H](C)NC(=O)[C@H](Cc1c[nH]c2ccccc12)NC(=O)[C@H](CCC(N)=O)NC(=O)CNC(=O)CNC(=O)CNC(=O)Cc1c(C)nn(CCN(CCN)CCCC(=O)NCCC[n+]2c3cc(N(C)C)ccc3cc3ccc(N(C)C)cc32)c1C)C(C)C)C(N)=O", "note": "[Re-AO-BBN] (X1-GGGQWAVGHLM-NH2; C-terminus assumed)", "values": [{"measurement": "effect on survival of PC3 cells compared with the control", "setting": "[1]", "value": "no effect"}, {"measurement": "Pearson's Correlation Coefficient (PCC) of colocalization with Mitotracker dye", "setting": "[2]", "value": 0.31}]}
{"molecule": "[O]=[99Tc](=[O])(=[O])[O-]", "note": "[^99mTcO4^−]", "values": [{"measurement": "foci number / DNA damage relative to the control (in words)", "setting": "[3]", "value": "did not cause any increase"}]}
{"molecule": "cyanide-m-chlorophenylhydrazone [CCCP]", "values": [{"measurement": "cell membrane integrity / viability versus control", "setting": "[4]; radiocomplexes 0.74 and 1.85 MBq (loss at the highest activity)", "value": "did not compromise their viability"}, {"measurement": "ATP production / ATP levels versus control cells", "setting": "[4]; radiocomplexes 0.74 and 1.85 MBq", "value": "significantly reduced the ATP production"}]}
{"molecule": "Re-TPP-BBN: Re(I) congener of 99mTc-TPP-BBN, surrogate of the 99mTc complex ({pyrazolyl‑diamine chelator carrying TPP}-GGGQWAVGHLM; ends and bridges not checked; also: Re(I) complex of the chelator)", "values": [{"measurement": "IC50", "setting": "[5]", "value": "380 ± 140", "unit": "pM"}]}
